Counter-ions that a name gives are not always drawn.

In test [1] the test system is interleukin-1. Briefly: Inhibition of interleukin-1 induced T cell proliferation. The note with it: for inhibition of interleukin 1 (activity in words): active = greater than 30% at 10^-6 M. The class given is cell-based. From the text:
The inhibition of interleukin-1 induced T cell proliferation assay, Proc. Nat. […] Since people with arthritis make excess interleukin 1, compounds which inhibit the activity of interleukin 1 are useful in the treatment of arthritis. According to this procedure compounds which inhibit the activity of interleukin 1 greater that 30% at 10^-6 M are considered to be "active".

Test [2] has as its system angiogenesis. Briefly: Chick embryo assay of Folkman (inhibition of angiogenesis / tumor growth). The class given is in vivo. As to conditions: 50 μg/10 μl in the presence of heparin. How it is done: According to this procedure compounds which are considered to be "active" (i.e. antiangiogenic) give an avascular zone of 4 mm or greater in some embryos when tested at 50 μg/10 μl in the presence of 50 μg/10μ of heparin.

Test [3] relates to arachidonic acid. Briefly: Arachidonic Acid Antagonism Assay (AAAA), LD50 of sodium arachidonate. It is filed as in vivo, Charles River male CF-1 mice. As to conditions: test compound IV 15 min before sodium arachidonate; LD50 outside 95% confidence interval of control. How it is done:
Since these metabolites contribute to the pathological problems associated with stroke, spinal trauma and head injury, compounds which antagonize arachidonic acid are useful in treating stroke, spinal trauma and head injury.
While not necessary to determine arachidonic acid antagonism, the above assay has been modified as follows: Charles River male CF-1 mice weighing 18-22 g are treated IV with the test compound dissolved in 1.0% Tween-80 and 0.1% hydrochloric acid in distilled water, 0.2 ml total volume. Fifteen minutes later sodium arachidonate (90% pure) in physiological (normal) saline is injected into the tail vein. The LD50 is measured using the Spearman-Karber method with a log dose interval of 0.05 (N=6). Compounds which elevate the LD50 outside of the 95% confidence interval of the control LD50 are considered to be "active".

Test [4] deals with MDA formation. Kind of test: Malonyldialdehyde (MDA) Formation Assay (rat brain synaptosomes). It is filed as biochemical. The note with it: 10 min at 37°, pH 7.0; active = 50% or more at 200 μM or less. How it is done:
Since lipid peroxidation is involved in the pathophysiology of center nervous system trauma, compounds which inhibit MDA formation are useful in treating the conditions listed below.
While not necessary to determine MDA formation, the above assays have been modified as follows: rat brain synaptosomes are prepared as described in the Example about the conjugated diene assay, except that the final wash of the synaptosomes and final suspension are in physiological (normal) saline in which the pH has been adjusted to 7.0. The synaptosomes are incubated for 10 min at 37° in physiological (normal) saline pH 7.0 (total volume=100 ul) containing; 10 ul synaptosomal suspension, 10% DMSO plus or minus drug, 150 uM Fe^+++ and 50 uM Fe++. The incubation is started by the rapid addition of iron to the otherwise complete reaction. The iron solutions are prepared fresh as ferric chloride and ferrous ammonium sulfate in argon-purged water. Following the 10 min incubation, the reaction is stopped by the addition of 500 ul ice-cold 12% trichloroacetic acid prepared in 0.5N hydrochloric acid. Water (300 ul) is then added along with 100 ul of freshly prepared thiobarbituric acid (3.3% in 0.5N sodium hydroxide) and 10 ul of 5 mM desferrioxamine. The sample is then heated in a boiling water bath for 20 minutes. The samples are cooled and centrifuged for 15 minutes at 1500×g and the absorbence of the supernatant fraction is read at 532 nm. The % inhibition of MDA formation is calculated by dividing the absorbance of sample containing drug by the absorbence of samples incubated without drug. Reaction blanks are samples incubated in the absence of iron. A compound that inhibits MDA formation by 50% or more at a concentration of 200 μM or less is considered "active".

For `C[C@]12CC(=O)[C@H]3[C@@H](CCC4=CC(=O)CC[C@@]43C)[C@@H]1CC[C@@H]2C(=O)CN1CCN(c2cc(N3CCCC3)nc(N3CCCC3)n2)CC1.Cl.Cl` [Example 94, 21-[4-[2,6-bis(1-pyrrolidinyl)-4-pyrimidinyl]-1-piperazinyl]pregn-4-ene-3,11,20-trione dihydrochloride], the “inhibition of interleukin 1 (activity in words)” value in test [1] is recorded as “demonstrate inhibition of interleukin 1”.

With `COc1ccc(CCN(CC(=O)[C@@]2(O)CC[C@H]3[C@@H]4CCC5=CC(=O)CC[C@]5(C)C4=CC[C@@]32C)Cc2cc(OC)c(OC)c(OC)c2)cc1OC` [Example 37, 17α-hydroxy-21-[[2-(3,4-dimethoxy-phenyl)ethyl]-[3,4,5-trimethoxyphenyl)methyl]amino]pregna-4,9(11)diene-3,20-dione hydrochloride], the “inhibition of interleukin 1 (activity in words)” value in test [1] was “demonstrate inhibition of interleukin 1”. The “inhibition of angiogenesis (activity in words)” value (shortened to “inhibition of angiogenesis”) in test [2] was “demonstrate inhibition of angiogenesis”.

Regarding `CN(CCN(C)c1ccccn1)CC(=O)[C@@]1(O)CC[C@H]2[C@@H]3CCC4=CC(=O)CC[C@]4(C)C3=CC[C@@]21C` [Example 24, 17α-hydroxy-21-[methyl[2-(methyl-2-pyridinylamino)ethyl]-aminopregna-4,9(11)-diene-3,20-dione dihydrochloride], the “arachidonic acid antagonism (activity in words)” value (from here on “arachidonic acid antagonism”) in test [3] is listed as “demonstrate arachidonic acid antagonism”. Besides, the “inhibition of angiogenesis” value in test [2] is recorded as “demonstrate inhibition of angiogenesis”.

For `COc1ccccc1N1CCN(CC(=O)[C@@]2(O)CC[C@H]3[C@@H]4CCC5=CC(=O)CC[C@]5(C)[C@H]4CC[C@@]32C)CC1.Cl.Cl.O` [Example 41, 17α-hydroxy-21-[4-(2-methoxyphenyl)-1-piperazinyl]pregn-4-ene-3,20-dione dihydrochloride hydrate], in test [3], the “arachidonic acid antagonism” value is “demonstrate arachidonic acid antagonism”. In addition, the “% of Embryos with 4 mm or Greater Avascular Zone” value in test [2] was 80%.

Regarding `CN1CCN(CC(=O)[C@@]2(O)CC[C@H]3[C@@H]4CCC5=CC(=O)CC[C@]5(C)C4=CC[C@@]32C)CC1` [Example 101, 17α-hydroxy-21-(4-methyl-1-piperazinyl)pregna-4,9(11)-diene-3,20-dione], the “inhibition of interleukin 1 (activity in words)” value in test [1] is listed as “demonstrate inhibition of interleukin 1”.

Consider `C[C@@H]1C[C@H]2[C@@H]3CCC4=CC(=O)C=C[C@]4(C)[C@H]3CC[C@]2(C)[C@H]1C(=O)CN1CCN(c2cc(N3CCCC3)nc(N3CCCC3)n2)CC1.Cl.Cl` [Example 121, 16α-Methyl-21-[4-[2,6-bis(1-pyrrolidinyl)-4-pyrimidinyl]-1-piperazinyl]-pregna-1,4-diene-3,20-dione dihydrochloride], for which, in test [4], the “inhibition of MDA formation (activity in words)” value (from here on “inhibition of MDA formation”) is listed as “demonstrate such activity”.

Take `COc1ccc2c(c1)CC[C@@H]1[C@@H]2CC[C@@]2(C)[C@H]1CC[C@]2(O)C(=O)CN1CCN(c2cc(N3CCCC3)nc(N3CCCC3)n2)CC1` [Example 125, 3,17α-Dihydroxy-21-[4-[2,6-bis(1-pyrrolidinyl)-4-pyrimidinyl]-1-piperazinyl]-19-norpregna-1,3,5(10)-trien-20-one 3-methyl ether (E)-2-butenedioate 1:1 salt]: the “inhibition of MDA formation” value in test [4] was “demonstrate such activity”.

Take `C[C@]12CC[C@@H]3c4ccc(O)cc4CC[C@H]3[C@@H]1CC[C@]2(O)C(=O)CN1CCN(c2cc(N3CCCC3)nc(N3CCCC3)n2)CC1` [Example 129, 3,17α-Dihydroxy-21-[4-[2,6-bis(1-pyrrolidinyl)-4-pyrimidinyl]-1-piperazinyl]-19-norpregna-1,3,5(10)-trien-20-one (E)-2-butenedioate 1:1 salt]: the “inhibition of MDA formation” value in test [4] is “demonstrate such activity”.

Take `C[C@H]1C[C@H]2[C@@H]3C[C@H](F)C4=CC(=O)CC[C@]4(C)C3=CC[C@]2(C)[C@@]1(O)C(=O)CN1CCN(c2cc(N3CCCC3)nc(N3CCCC3)n2)CC1` [Example 118, 6αa-Fluoro-17α-hydroxy-16β-methyl-21-[4-[2,6-bis(1-pyrrolidinyl)-4-pyrimidinyl]-1-piperazinyl]-pregna-4,9(11)-diene-3,20-dione dihydrochloride]: the “inhibition of MDA formation” value in test [4] is recorded as “demonstrate such activity”.

On to `C[C@H]1C[C@@H]2[C@H]([C@@H](O)C[C@@]3(C)[C@H]2CC[C@]3(O)C(=O)CN2CCN(c3ccccn3)CC2)[C@@]2(C)C=CC(=O)C=C12` [Example 21, 11β,17α-dihydroxy-6α-methyl-21-[4-(2-pyridinyl)-1-piperazinyl]pregna-1,4-diene-3,20-dione], for which the “arachidonic acid antagonism” value in test [3] is given as “demonstrate arachidonic acid antagonism”. In test [1], the “inhibition of interleukin 1 (activity in words)” value is reported as “demonstrate inhibition of interleukin 1”. In test [2], the “% of Embryos with 4 mm or Greater Avascular Zone” value amounted to 91% and the “inhibition of angiogenesis” value was “demonstrate inhibition of angiogenesis”.

Take `CC(CN1CCN(c2cc(N3CCCC3)nc(N3CCCC3)n2)CC1)[C@H]1CC[C@H]2[C@@H]3CCC4=CC(=O)CC[C@]4(C)[C@H]3CC[C@]12C.Cl` (some centres unmarked) [Example 107, 20-Methyl-21-[4-(2,6-bis(1-pyrrolidinyl)-4-pyrimidinyl)-1-piperazinyl]pregna-4-ene-3-one hydrochloride]: the “inhibition of MDA formation” value in test [4] is on record as “demonstrate such activity”.

Take `CN1CCN(c2cc(N3CCN(CC(=O)[C@@]4(O)CC[C@H]5[C@@H]6CCC7=CC(=O)CC[C@]7(C)C6=CC[C@@]54C)CC3)nc(N3CCN(C)CC3)n2)CC1` [Example 19, 17α-Hydroxy-21-[4-[2,6-bis(4-methyl-1-piperazinyl)A-pyrimidinyl]-1-piperazinyl]-pregna-4,9(11)-diene-3,20-dione methanesulfonate hydrate]: the “arachidonic acid antagonism” value in test [3] is “demonstrate arachidonic acid antagonism”.

Consider `C[C@]12CC[C@H]3[C@@H](CCC4=CC(=O)C=C[C@@]43C)[C@@H]1CC[C@@H]2C(=O)CN1CCN(c2cc(N3CCCC3)nc(N3CCCC3)n2)CC1.Cl.Cl` [Example 97, 21-[4-[2,6-di-(1-pyrrolidinyl)-4-pyrimidinyl]-1-piperazinyl]-pregna-1,4-diene-3,20-dione dihydrochloride], for which, in test [1], the “inhibition of interleukin 1 (activity in words)” value is reported as “demonstrate inhibition of interleukin 1”. Moreover, the “inhibition of angiogenesis” value in test [2] is reported as “demonstrate inhibition of angiogenesis”.

`C[C@]12CC(=O)[C@H]3[C@@H](CCC4=CC(=O)CC[C@@]43C)[C@@H]1CC[C@@H]2C(=O)CN1CCN(c2ccccn2)CC1.Cl.O` [Example 45, 21-[4-(2-pyridinyl)-1-piperazinyl]pregn-4-ene-3,11,20-trione hydrochloride hydrate]: the “arachidonic acid antagonism” value in test [3] was “demonstrate arachidonic acid antagonism”.

Take `C[C@]12CCC(=O)C=C1CC[C@@H]1C2=CC[C@]2(C)[C@@H](CCN3CCN(c4cc(N5CCCC5)nc(N5CCCC5)n4)CC3)CC[C@@H]12.Cl` [Example 104, 21-[4-(2,6-Bis(1-pyrrolidinyl)-4-pyrimidinyl)-1-piperazinyl]pregna-4,9(11)-dien-3-one hydrochloride]: the “inhibition of angiogenesis” value in test [2] was “demonstrate inhibition of angiogenesis”. Besides, the “inhibition of MDA formation” value in test [4] is on record as “demonstrate such activity”.

As to `C[C@@]12C(=CC(=O)C[C@@H]1C#N)CC[C@@H]1C2=CC[C@]2(C)[C@@H](CCN3CCN(c4cc(N5CCCC5)nc(N5CCCC5)n4)CC3)CC[C@@H]12.Cl.Cl.Cl.O` [Example 110, 21-[4-(2,6-Bis(1-pyrrolidinyl)4-pyrimidinyl)-1-piperazinyl]-1α-cyanopregna-4,9(11)-dien-3-one-trihydrochloride, hydrate], the “inhibition of MDA formation” value in test [4] is “demonstrate such activity”.

For the molecule `CCN(CC)c1ccc(N(C)C)c(N2CCN(CC(=O)[C@@]3(O)CC[C@H]4[C@@H]5CCC6=CC(=O)CC[C@]6(C)C5=CC[C@@]43C)CC2)n1.Cl.Cl` [Example 96, 21-[4-[6-(diethylamino)-3-(dimethylamino)-2-pyridinyl]-1-piperazinyl]-17α-hydroxypregna-4,9(11)-diene-3,20-dione dihydrochloride], the “inhibition of interleukin 1 (activity in words)” value in test [1] is listed as “demonstrate inhibition of interleukin 1”. The “% Inhibition at 10^-6 M” value in test [1] (interleukin 1, 10^-6 M) worked out at 77%.

Values taken from patent US5506354A, “Imidazolylpiperazinyl steroids” (The Upjohn Company, priority 1992, dated 1996).
